We go through four compounds from US9463175B2, “Antimalarial drug which contains 5-aminolevulinic acid or derivative thereof as active ingredient” (SBI Pharmaceuticals Co., Ltd., priority 2010, dated 2016).

The subject of experiment [1] is Plasmodium falciparum 3D7. Put plainly: Infection rate in culture medium with high starting infection rate of 2%, 8 hours culture (Example 7). It counts as cell-based. Particulars: ALA hydrochloride 200 μM + iron (II) chloride 10 μM; starting infection rate 2%; culture for 8 hours; nothing added: 3.1%. The procedure: (§1) An iron (II) chloride aqueous solution was added to 1 ml of Plasmodium falciparum 3D7 culture medium having an infection rate of 0.3% to a final concentration of 0.1, 1, 10, and 100 μM. As a control, a culture medium to which sterilized water had been added was used. Three culture media were prepared for each of the aforementioned concentrations, and a 12-well plate was used. After each culture medium had been cultured for 48 hours, the infection rate was measured by Giemsa staining. In addition, as for an ALA-added medium, an ALA chloride aqueous solution was added to the medium to a final concentration of 200 μM, and an iron (II) chloride aqueous solution was then added thereto to a final concentration of 0.1, 1, 10, and 100 μM. As described above, the culture medium was cultured for 48 hours, and the infection rate was then measured by Giemsa staining.
(§2) A culture medium was prepared in the same manner as in Example 5 with the exception that 2 ml of a culture medium having an infection rate of 2% was used. To the thus prepared culture medium, iron (II) chloride (final concentration: 10 μM) and ALA hydrochloride (final concentration: 200 μM) were added, followed by culture for 8 hours. Thereafter, the infection rate was measured by Giemsa staining.

Experiment [2] deals with Plasmodium falciparum 3D7. Put plainly: Infection rate in 2% culture with white LED irradiation (Example 8). It counts as cell-based. Particulars: ALA hydrochloride 200 μM; starting infection rate 2%; 8 hours culture, white LED 15 minutes, further 8 hours. The procedure: as §2
ALA hydrochloride was added to a final concentration of 200 μM to a culture medium that had been prepared in the same manner as in Example 7. The obtained mixture was cultured for 8 hours, and thereafter, irradiated with white LED for 15 minutes. The resultant was further cultured for 8 hours, and the infection rate was then measured by Giemsa staining.

The subject of experiment [3] is Plasmodium falciparum 3D7. As to the kind of experiment: Infection (proliferation) rate of Plasmodium falciparum 3D7 in random culture, Giemsa staining (Example 5). Particulars: 48 hours. It is filed as cell-based. As to the method: as §1
(§3) The infection (proliferation) rate (%) was calculated using the following formula: [(Infection rate after 48 hours−infection rate at initiation of culture)/(infection rate of control after 48 hours−infection rate at initiation of culture)]×100. It is to be noted that the infection rate at initiation of the culture was set at 0.3%.
The ratio of an increase in the infection rate caused by culture was indicated by setting a region to which neither iron nor ALA was added at 100%.

The test system of experiment [4] is Plasmodium falciparum 3D7. As to the kind of experiment: Infection rate of Plasmodium falciparum 3D7 in synchronized culture at the ring stage (Example 6). It is filed as cell-based. The procedure:
as §1, §3
According to a common method, there was prepared a Plasmodium falciparum 3D7 culture medium having an infection rate of 0.3%, which was subjected to synchronized culture at the ring stage by treating with 5% sorbitol. The infection rate was measured by the same method as that described in Example 5. The final concentration of ALA hydrochloride was set at 200 μM.

For another experiment, the system named is malaria parasites. Particulars: cited from earlier work.
The subject of experiment [5] is chloroquine-resistant malaria parasites. As to the kind of experiment: Administration to a malaria patient not responding to chloroquine (Example 3). It is filed as in vivo, human. Particulars: predetermined amount of chloroquine alone, body temperature kept around 38 degrees. As to the method:
A predetermined amount of chloroquine was administered to a patient who developed malaria. […] They suffered from headache, vertigo and nausea, and their body temperature was kept around 38 degrees. While administering chloroquine, a single capsule of the same capsule as used in Example 1 was also administered to the patient once a day. […] After administration of the capsule for 3 days, administration was suspended.

Take `Cl.NCC(=O)CCC(=O)O` [ALA hydrochloride]: the infection rate in experiment [1] stood at 0.47%; in experiment [2], 1.8%.

On to `NCC(=O)CCC(=O)O` [ALA, 5-aminolevulinic acid], for which the “Infection Rate (%) by Random Culture” value is 88% in experiment [3] (ALA 200 μM + iron (II) chloride 0.1 μM); 86% in experiment [3] (ALA 200 μM + iron (II) chloride 1 μM); 59% in experiment [3] (ALA 200 μM + iron (II) chloride 10 μM); 57% in experiment [3] (ALA 200 μM + iron (II) chloride 100 μM); 96% in experiment [3] (ALA 200 μM, no iron (II) chloride). For the same compound, the “Infection Rate by Synchronized Culture (Ring Stage)” value in experiment [4] (ALA hydrochloride 200 μM + iron (II) chloride 0.1 μM) amounted to 69%; in experiment [4] (ALA hydrochloride 200 μM + iron (II) chloride 1 μM) it was 58%; in experiment [4] (ALA hydrochloride 200 μM + iron (II) chloride 10 μM), 51%; in experiment [4] (ALA hydrochloride 200 μM + iron (II) chloride 100 μM), 5%; in experiment [4] (ALA hydrochloride 200 μM, no iron (II) chloride) it was 95%. The “parasiticidal effect of PDT” value with malaria parasites (ALA 0.2 mM in medium, light irradiation from projector lamp of 410 W for 30 minutes) was “sufficient parasiticidal effect”. Moreover, in the experiment on malaria parasites (illumination with ordinary indoor light), the “ALA concentration in medium needed for PDT therapy to exhibit some effect” value is 2 mM.

Turning to `CCN(CC)CCCC(C)Nc1ccnc2cc(Cl)ccc12` (stereo not shown) [chloroquine], the effect on malaria entry in experiment [5] is listed as “sufficient effects could not be obtained”.

As for `[Cl][Fe][Cl]` [iron (II) chloride, reference compound], the “Infection Rate (%) by Random Culture” value stood at 98% in experiment [3] (without ALA, iron (II) chloride 0.1 μM, no iron/no ALA = 100%); 97% in experiment [3] (without ALA, iron (II) chloride 1 μM, no iron/no ALA = 100%); 95% in experiment [3] (without ALA, iron (II) chloride 10 μM, no iron/no ALA = 100%); 82% in experiment [3] (without ALA, iron (II) chloride 100 μM, no iron/no ALA = 100%).
